Results on one compound are retold here after paper PMC7566600, “Engineering Af1521 improves ADP-ribose binding and identification of ADP-ribosylated proteins” (Nature Communications, 2020).

In the test the target is T1, WT Af1521 macro domain (Archaeoglobus fulgidus, UniProt O28751).
T1 construct: gene AF_1521; macro domain, His-tagged
T1 sequence (O28751 1-192): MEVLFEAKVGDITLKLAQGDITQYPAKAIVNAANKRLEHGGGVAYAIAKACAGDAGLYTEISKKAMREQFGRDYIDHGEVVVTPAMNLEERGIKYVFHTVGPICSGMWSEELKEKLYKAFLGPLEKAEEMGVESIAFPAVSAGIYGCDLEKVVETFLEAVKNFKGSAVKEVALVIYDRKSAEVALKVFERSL
Briefly: SPR ([…] kinetic fit; steady-state fit gave […]), immobilized protein. It counts as binding.

Regarding `Nc1ncnc2c1ncn2[C@@H]1O[C@H](COP(=O)(O)OP(=O)(O)OC[C@H]2O[C@H](O)[C@H](O)[C@@H]2O)[C@@H](O)[C@H]1O` [ADP-ribose], the Kd amounted to 2879 ± 9 nM.

One may read the Kd as a measure of binding affinity in units of concentration. The low end stands for tighter binding, the high end for weaker binding.
